# Data published in patent US6316423A, “Method of treating ischemic, hypoxic and anoxic brain damage” (priority 1999, dated 2001).
# How the values were obtained:
# [1] = Cardiovascular effects and body temperature of ADAC in nonischemic (normoxic) gerbils; type: in vivo, gerbil; conditions: for Blood pressure / Cardiac rate: 100 μg/kg ADAC, ± SEM
# Source text: Blood pressure was monitored using a Harvard Apparatus (South Natick, Mass.) rat tail blood pressure monitor (von Lubitz et al., 1994 supra), while a Silogic EC-60 cardiac and respiratory monitor (Stewartstown, Pa.) was used to measure cardiac rate. EEG clip electrodes were attached to the unshaven loose skin of the armpits and to both thighs saturated with EEG gel.
# [2] = test system: gerbils subjected to 10 minutes of ischemia; assay: Postischemic Morris water maze test (spatial memory); type: in vivo, gerbil
# Method: The Morris water maze (Morris et al., supra) is now considered the most direct means of assessing post-ischemic memory and learning of spatially oriented tasks (Corbett et al., Neuroreport, 3, 204 (1992)). This test is well known in the art and the specific parameters of this test as used herein are defined below. Female gerbils (Tumblebrook Farms, Mass.) weighing 70 g were used in the study. Prior to inclusion in the experiments, animals were tested for susceptibility to spontaneous seizures using the method described by Lee et al., Neuropharmacol., 5, 517 (1984). Seizure-prone gerbils were rejected.
# The details of the water maze are known in the art (von Lubitz et al., 1993 supra). Briefly, the system consists of a tank (1 m diameter) which is filled with opaque water to a depth of 30 cm. The tank contains a colorless target platform (15 cm diameter) submerged to a depth of 1.5 cm and placed in the center of the north-west quadrant. […]
# Prior to subjecting the gerbils to 10 minutes of ischemia, the gerbils were randomly divided into the control and the drug testing groups. […] During post-ischemic recovery, animals were monitored each day for signs of functional damage (e.g., pareses) that might affect their subsequent water maze performance. Postischemic mortality was also monitored every day.
smiles,measurement,setting,value
NCCNC(=O)Cc1ccc(NC(=O)Cc2ccc(Nc3ncnc4c3ncn4[C@@H]3O[C@H](CO)[C@@H](O)[C@H]3O)cc2)cc1 [ADAC],Blood pressure,[1]; 5 min post injection,83 ± 1 mm Hg
same,Cardiac rate,[1]; 5 min post injection,385 ± 6 beats/min
same,Blood pressure,[1]; 15 min post injection,81 ± 1 mm Hg
same,Cardiac rate,[1]; 15 min post injection,382 ± 7 beats/min
same,Blood pressure,[1]; 30 min post injection,82 ± 2 mm Hg
same,Cardiac rate,[1]; 30 min post injection,383 ± 8 beats/min
same,Blood pressure,[1]; 60 min post injection,80 ± 2 mm Hg
same,Cardiac rate,[1]; 60 min post injection,383 ± 6 beats/min
same,changes of body temperature,"[1]; 100 μg/kg, nonischemic gerbils",did not cause any significant changes
same,changes of cardiac rate,"[1]; 100 μg/kg, nonischemic gerbils",did not cause any significant changes
same,changes of mean arterial blood pressure,"[1]; 100 μg/kg, nonischemic gerbils",did not cause any significant changes
same,"bradycardia, hypotension, or decreased cerebral (cortical) blood flow","[1]; 0.1 mg/kg intraperitoneal, normoxic gerbils, within 120 minutes","not accompanied by a statistically significant bradycardia, hypotension, or decreased cerebral (cortical) blood flow"
same,cardiovascular effects at higher concentrations,"[1]; 0.3 mg/kg and beyond, within 30 minutes of administration",manifests cardiovascular effects within 30 minutes of administration of 0.3 mg/kg and beyond
same,preference for target quadrant in postischemic probe trial,"[2]; FIG. 2, controls lost all preference",retained a high preference for the target quadrant
same,recovery of postischemic water maze performance,"[2]; preischemic ADAC, FIG. 1","regained water maze performance levels that mirrored the plateau level obtained in preischemic training almost immediately (trial 2, day 9)"
